Measured values as given in US10407445B2, “Hepatitis C virus inhibitors” (ENANTA PHARMACEUTICALS, INC., priority 2013, dated 2019).

What was measured:
Format in all cases: cell-based
[1] = system: GT1a replicon encoding NS5A mutation M28T; assay: Transient replication assay, GT1a replicon with NS5A mutation M28T; conditions: Hepatitis C virus, read-out: EC50 1a M28T
[2] = system: GT1a replicon encoding NS5A mutation L31V; assay: Transient replication assay, GT1a replicon with NS5A mutation L31V; conditions: Hepatitis C virus, read-out: EC50 1a L31V
[3] = system: HCV GT 1a replicon; assay: HCV replicon assay, stable GT 1a replicon (Renilla luciferase); conditions: Hepatitis C virus, GT1A; HCV GT 1a replicon, 72 h; read-out: EC50 1a
Method: (§1) The activity of compounds was determined against HCV replicons representing genotypes (GT) 1a, 1b, 2a, and 3a. To generate stable Huh-7.5-based cell lines, HCV replicons were engineered to express the Renilla luciferase reporter (hRluc) fused to the neomycin phosphotransferase (Neo) gene. GT2a and GT3a HCV replicons were based on the JFH-1 subgenomic replicon (Kato et al. 2003 Gastroenterology, 125:1808-1817), in which the NS5A gene was replaced with that of strains J6 and S52 (GT2a and G3a, respectively). The activity of compounds against GT1a replicons encoding NS5A mutations (M28T, Q30R, L31M, Y93C, and Y93H) was also determined in a transient replication assay. The parental GT1a and GT2a replicons (pH/SG-Neo(L+I) and pSG-Neo-JFH1, respectively) were licensed from Apath LLC (Saint Louis, Mo.). The parental GT 1b replicon (pFKi389lucubineo_3_3′_ET) was licensed from ReBLikon GmbH (Germany). HCV replicons were constructed by standard molecular biology techniques described below. All replicon constructs were verified by restriction enzyme digestion and DNA sequencing.
pH/SG-Neo(L+I) was modified to add the firefly luciferase reporter gene and additional adaptive mutations by replacing the pH/SG-Neo(L+I) NS3-NS5A coding region with the corresponding sequence of pH77-S, creating pH/SG-lucubineo-H77S as described (Borawski J et al. 2009, J Virol 83: 10058-10074). Subsequently, the firefly luciferase-Neo cassette was replaced with the hRluc-Neo cassette. To create a unique cloning site, the NotI restriction site in NS5B was removed using QuickChange II XL Site-Directed Mutagenesis Kit (Agilent) and the following primers: NotI KO Fwd 5′-CTCAAACTCACTCCAATAGCTGCCGCTGGCCGGCTGGAC-3′(G→T mutation removing NotI site underlined) (SEQ. ID No. 1) and NotI KO Rev 5′-GTCCAGCGGGCCAGCGGCAGCTATTGGAGTGAGTTTGAG-3′(C→A mutation removing NotI site underlined) (SEQ. ID No. 2). The resulting vector, pH/SG-lucubineo-H775-NotIKO, was sequenced to confirm the NS5B gene. The hRluc-Neo cassette was PCR amplified from pF9 cytomegalovirus (CMV) hRluc-Neo Flexi(R) (Promega) using Accuprime Super Mix II (Invitrogen) and the following primers, which introduce restriction sites: […]
The amplification product was subcloned into pCR2.1-TOPO (Invitrogen). The resulting plasmid was digested with AscI and NotI, and the excised hRluc-Neo fragment was ligated using the Promega Rapid Ligation Kit (Promega) into pH/SG-lucubineo-H775-NotIKO digested with the same enzymes.
Stable HCV replicon cell lines were grown in complete media (Dulbecco's modified Eagle medium [DMEM], 2 mM L-glutamine, 0.1 mM essential amino acids, 1 mM sodium pyruvate, 10% heat inactivated fetal bovine serum) with the addition 500 μg/ml […] (G418). Huh7-lunet cells were maintained in the same medium without the addition of G418. Cells were routinely passaged at a dilution of 1:4 two times a week. The assay medium for both luciferase reporter HCV replicon and cytotoxicity assays used phenol red-free DMEM and lacked G418. For each stable replicon assay, a sixteen point half-log dilution series of compound was stamped (0.5 ul compound per well) into three replica 384-well plates, to which cells were added directly (4000 cells/well). For the transient replication assay, Huh7-lunet cells in ice-cold phosphate buffered saline (PBS) were electroporated (BioRad electroporator; 950 uF, 270V) with 10 ug purified in vitro transcribed HCV replicon RNA, followed by resuspension in complete media and plating (8000 cells/well) into compound stamped 384-well plates. Luciferase activity of compound-treated cells was measured relative to DMSO-treated cells after 72 h incubation using RENILLA-GLO™ Luciferase Assay (Promega). Cytotoxicity (CC50) in the GT1b replicon cell line was analyzed using CELL TITER-GLO™ (Promega). […]

[4] = system: HCV GT 1b replicon; assay: HCV replicon assay, stable GT 1b replicon (Renilla luciferase); conditions: Hepatitis C virus, GT1B, 72 h
Method: as §1
The hRluc-Neo cassette was PCR amplified from pF9 cytomegalovirus (CMV) hRluc-Neo Flexi(R) (Promega) using Accuprime Super Mix II (Invitrogen) and the following primers, which introduce restriction sites: […]
The amplification product was subcloned into pCR2.1-TOPO (Invitrogen). The resulting plasmid was digested with AscI and NotI, and the excised hRluc-Neo fragment was ligated using the Roche Quick Ligation Kit (Roche) into pFKi389lucubineo_3_3′_ET digested with the same enzymes.
Stable HCV replicon cell lines were grown in complete media (Dulbecco's modified Eagle medium [DMEM], 2 mM L-glutamine, 0.1 mM essential amino acids, 1 mM sodium pyruvate, 10% heat inactivated fetal bovine serum) with the addition 500 μg/ml […] (G418). Huh7-lunet cells were maintained in the same medium without the addition of G418. Cells were routinely passaged at a dilution of 1:4 two times a week. The assay medium for both luciferase reporter HCV replicon and cytotoxicity assays used phenol red-free DMEM and lacked G418. For each stable replicon assay, a sixteen point half-log dilution series of compound was stamped (0.5 ul compound per well) into three replica 384-well plates, to which cells were added directly (4000 cells/well). For the transient replication assay, Huh7-lunet cells in ice-cold phosphate buffered saline (PBS) were electroporated (BioRad electroporator; 950 uF, 270V) with 10 ug purified in vitro transcribed HCV replicon RNA, followed by resuspension in complete media and plating (8000 cells/well) into compound stamped 384-well plates. Luciferase activity of compound-treated cells was measured relative to DMSO-treated cells after 72 h incubation using RENILLA-GLO™ Luciferase Assay (Promega). Cytotoxicity (CC50) in the GT1b replicon cell line was analyzed using CELL TITER-GLO™ (Promega).
The compounds of the present invention can be effective against the HCV 1b genotype. It should also be understood that the compounds of the present invention can inhibit multiple genotypes of HCV. In one embodiment compound of the present invention are active against the 1a, 1b, 2a, 2b, 3a, 4a, and 5a genotypes. In another embodiment compound of the present invention are active against the HCV resistant mutants. […] EC50s are in pM against HCV GT 1a and GT 1b; and nM against GT 2a-J6, GT 3a and GT1a resistant variants (M28T, Q30R, L31V, Y93C and Y93H).

[5] = system: GT1a replicon encoding NS5A mutation Q30R; assay: Transient replication assay, GT1a replicon with NS5A mutation Q30R; conditions: Hepatitis C virus, read-out: EC50 1a Q30R
[6] = system: GT1a replicon encoding NS5A mutation Y93H; assay: Transient replication assay, GT1a replicon with NS5A mutation Y93H; conditions: Hepatitis C virus, read-out: EC50 1a Y93H
[7] = system: GT1a replicon encoding NS5A mutation Y93C; assay: Transient replication assay, GT1a replicon with NS5A mutation Y93C; conditions: Hepatitis C virus, read-out: EC50 1a Y93C

Structure (SMILES) | EC50 [1] [nM] | EC50 [2] [nM] | EC50 [3] [nM] | EC50 [4] [nM] | EC50 [5] [nM] | EC50 [6] [nM] | EC50 [7] [nM]
COC(=O)N[C@H](C(=O)N1[C@H](c2nc3ccc4cc(-c5ccc(-c6cnc([C@@H]7C[C@@]8(CCCOC8)CN7C(=O)[C@@H](NC(=O)OC)C7C[C@@H](C)O[C@H](C)C7)[nH]6)cc5)ccc4c3[nH]2)C[C@@H]2CCC[C@@H]21)C(C)C (some centres unmarked) [Compound 43] | 0.04 | 0.06 | 0.015 | 0.023 | 0.03 | 2 | 0.04
COC(=O)N[C@H](C(=O)N1[C@H](c2ncc(-c3ccc(-c4ccc(-c5cnc([C@@H]6C[C@@]7(CCCOC7)CN6C(=O)[C@@H](NC(=O)OC)C6C[C@@H](C)O[C@H](C)C6)[nH]5)cc4)cc3)[nH]2)C[C@@H]2CCC[C@@H]21)C(C)C (some centres unmarked) [Compound 45] | 0.04 | 0.06 | 0.023 | 0.028 | 0.03 | 8 | 0.3
